Data published in US6521635B1, “Inhibition of MXR transport by acridine derivatives” (priority 2000, dated 2003).
Where two headings read alike, the source gives them in different places.

Legend:
[1] = test system: S1-M1-80 cells expressing MXR; assay: In vitro cytotoxicity assay (sulforhodamine B staining); format: cell-based, human; details: for IC50: Homo sapiens, S1-M1-80, 96 h; for RR (relative resistance): S1-M1-80 cells relative to S1 parental; for DMF +0.5 μM GF120918: IC50 without / IC50 with 0.5 μM GF120918; for DMF +1.0 μM GF120918: IC50 without / IC50 with 1.0 μM GF120918
Protocol: (§1) Reversal of resistance was determined in cytotoxicity assays using the sulforhodamine staining (Skehan et al. (1990) J. Natl. […] Briefly, cells were harvested and seeded at a density of 2000 cells/well for the colon cancer lines and 4000 cells/well for the breast cancer cell lines in flat-bottom 96-well plates. The cells were incubated for 24 h at 37° C. to allow attachment prior to addition of the drugs. […] Each concentration was tested in triplicate and the controls were done in replicates of eight. Results are representative of from three to six experiments. […] After incubation, the cells were fixed in TCA and stained with sulforhodamine B (SRB) solution (0.4% wt/vol in 1% acetic acid) (Sigma Chemical, St Louis, Mo.). Optical densities were read on a Bio-Rad plate reader (Hercules, Calif.) at an absorbance of 540 nm.

MCF-7 parental cells = assay: as above; format: cell-based, human; details: for IC50: Homo sapiens, MCF7, 96 h
Protocol: as §1

[2] = test system: S1-B1-20 Pgp-overexpressing cells; assay: as above; format: cell-based, human; details: for IC50: Homo sapiens, S1B1-20, 96 h; for RR (relative resistance): S1-B1-20 cells relative to S1 parental; for DMF +0.5 μM GF120918 / DMF +1.0 μM GF120918 / relative resistance: S1-B1-20 cells; for DMF +0.5 μM GF120918: IC50 without / IC50 with 0.5 μM GF120918; for DMF +1.0 μM GF120918: IC50 without / IC50 with 1.0 μM GF120918
Protocol: as §1

S1 parental cells = assay: as above; format: cell-based, human; details: for IC50: Homo sapiens; for DMF +0.5 μM GF120918 / DMF +1.0 μM GF120918: S1 cells; for DMF +0.5 μM GF120918: IC50 without / IC50 with 0.5 μM GF120918; for DMF +1.0 μM GF120918: IC50 without / IC50 with 1.0 μM GF120918
Protocol: as §1

MXR (S1-M1-80 cells) = target: T1, MXR (S1-M1-80 cells) (Homo sapiens, UniProt Q9UNQ0, R482G); assay: Rhodamine efflux assay (flow cytometry); format: cell-based
T1 construct: express high levels of a mitoxantrone transporter (Miyake et al. (1999) Cancer Res.59: 8-13); endogenous in cells; host or cells: S1-M1-80 (mitoxantrone-selected subline of S1 colon carcinoma cells)
T1 sequence (Q9UNQ0 1-655 R482G): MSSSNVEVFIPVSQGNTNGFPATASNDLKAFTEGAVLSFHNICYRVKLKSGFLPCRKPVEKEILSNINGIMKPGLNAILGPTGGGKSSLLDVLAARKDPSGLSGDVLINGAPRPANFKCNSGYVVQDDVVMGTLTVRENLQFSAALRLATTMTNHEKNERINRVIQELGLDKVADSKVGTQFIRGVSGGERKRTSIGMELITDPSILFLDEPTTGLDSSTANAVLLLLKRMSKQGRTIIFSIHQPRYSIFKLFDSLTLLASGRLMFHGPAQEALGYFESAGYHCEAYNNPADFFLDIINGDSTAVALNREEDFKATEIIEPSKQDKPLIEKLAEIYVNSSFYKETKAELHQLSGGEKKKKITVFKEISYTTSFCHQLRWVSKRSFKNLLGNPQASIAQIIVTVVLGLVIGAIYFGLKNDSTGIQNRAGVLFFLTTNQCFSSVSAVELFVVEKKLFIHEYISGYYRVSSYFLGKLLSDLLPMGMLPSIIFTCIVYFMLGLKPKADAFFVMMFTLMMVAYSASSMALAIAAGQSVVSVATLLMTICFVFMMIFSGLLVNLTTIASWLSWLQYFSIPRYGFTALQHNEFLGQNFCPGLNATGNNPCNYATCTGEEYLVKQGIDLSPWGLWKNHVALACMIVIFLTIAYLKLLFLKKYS
Protocol: To provide confirmation, rhodamine efflux assays were performed. […] The results are depicted in FIG. 2.

[3] = test system: S1 parental cells (low endogenous level of Pgp); assay: Rhodamine efflux assay (flow cytometry); format: cell-based, human
Protocol: The rhodamine and calcein efflux assays were performed as previously described with minor modifications (Lee et al. (1994) Mol. Pharmacol. 46: 627-638; Versantvoort et al. (1995) Int. J. Cancer 63: 855-862.) Suspensions of logarithmic phase cells were obtained from tissue culture flasks by trypsinization and transferred into round-bottom 96-well plates. […] After the efflux period, the cells were washed with DPBS and placed on ice. A FACSort flow cytometer (Becton Dickinson, San Jose, Calif.) with a 488-nm argon laser was used to analyze the samples. Rhodamine 123 or calcein fluorescence was collected after a 530 nm bandpass filter. A minimum of 10,000 events was collected per sample and the samples were gated on forward scatter versus side scatter to exclude clumps and debris; dead cells were excluded based on propidium iodide staining.
To provide confirmation, rhodamine efflux assays were performed. […] After an accumulation and efflux period, rhodamine fluorescence was quantitated by flow cytometric analysis. The results are depicted in FIG. 2. […] PSC 833, a cyclosporin-D analog, was used as a positive control for Pgp antagonism.

[4] = S1-M1-80 cells, chemotherapy drug without GF120918, 96 h, read-out: IC50
[5] = read-out: IC50 +0.5 μM GF120918, S1-M1-80 cells, with 0.5 μM GF120918, 96 h
[6] = read-out: IC50 +0.5 μM GF120918
[7] = read-out: IC50 +1.0 μM GF120918
[8] = 96 h, read-out: IC50 +0.5 μM GF120918
[9] = 96 h, read-out: IC50 +1.0 μM GF120918

Structure (SMILES)	IC50 [1, 4] [nM]	IC50 [1, 5] [nM]	RR (relative resistance) [1]	DMF +0.5 μM GF120918 ([1]; S1-M1-80 cells)	DMF +1.0 μM GF120918 ([1]; S1-M1-80 cells)	IC50 [2, 6] [nM]	IC50 [2, 7] [nM]	IC50 ([2]; read-out: IC50) [nM]	RR (relative resistance) [2]	DMF +0.5 μM GF120918 [2]	DMF +1.0 μM GF120918 [2]	IC50 (S1 parental cells; [8]) [nM]	IC50 (S1 parental cells; [9]) [nM]	IC50 (S1 parental cells; 96 h, read-out: IC50) [nM]	DMF +0.5 μM GF120918 (S1 parental cells)	DMF +1.0 μM GF120918 (S1 parental cells)	relative resistance ([1]; S1-M1-80 cells) [fold]	relative resistance [2] [fold]	also measured
O=C1c2c(O)ccc(O)c2C(=O)c2c(NCCNCCO)ccc(NCCNCCO)c21 [Mitoxantrone]	222000 ± 101000	1570 ± 950	35806	141	1850	15 ± 5.6	13 ± 6.6	410 ± 610	66	27	31	5.3 ± 4.3	5.2 ± 4.4	6.2 ± 4.7	1.2	1.2			IC50 ([1]; read-out: IC50 +1.0 μM GF120918, S1-M1-80 cells, with 1.0 μM GF120918, 96 h): 120 ± 110 nM; IC50 (MCF-7 parental cells; [6]): 5.7 ± 7.3 nM; IC50 (MCF-7 parental cells; [7]): 5.6 ± 8.1 nM; IC50 (MCF-7 parental cells; read-out: IC50): 25 ± 19 nM; DMF (Dose Modifying Factor) +0.5 μM GF120918 (MCF-7 parental cells; MCF-7 cells, IC50 without / IC50 with 0.5 μM GF120918): 4.4; DMF +1.0 μM GF120918 (MCF-7 parental cells; MCF-7 cells, IC50 without / IC50 with 1.0 μM GF120918): 4.4
C/C=C/C[C@@H](C)C(=O)[C@H]1C(=O)N[C@@H](C(C)C)C(=O)N(C)CC(=O)N(C)[C@@H](CC(C)C)C(=O)N[C@@H](C(C)C)C(=O)N(C)[C@@H](CC(C)C)C(=O)N[C@@H](C)C(=O)N[C@H](C)C(=O)N(C)[C@@H](CC(C)C)C(=O)N(C)[C@@H](CC(C)C)C(=O)N(C)[C@@H](C(C)C)C(=O)N1C [PSC 833]																			antagonism of MXR (MXR (S1-M1-80 cells)): not an effective antagonist for MXR; effect on rhodamine accumulation and efflux [3]: small increase in rhodamine accumulation and a decrease in efflux
CC(=O)O[C@H]1C(=O)[C@@]2(C)[C@H]([C@H](OC(=O)c3ccccc3)[C@]3(O)C[C@H](OC(=O)[C@H](O)[C@@H](NC(=O)c4ccccc4)c4ccccc4)C(C)=C1C3(C)C)[C@]1(OC(C)=O)CO[C@@H]1C[C@@H]2O [paclitaxel]																	1.5	200	
CC[C@@]1(O)C(=O)OCc2c1cc1n(c2=O)Cc2cc3c(CN(C)C)c(O)ccc3nc2-1 [topotecan]	12000 ± 5000	2000	334	6	23	40	27 ± 5	160 ± 50	4.4	4	5.9	34	25 ± 7	36 ± 8.5	1.0	1.4	334	4.4	IC50 (S1 parental cells; read-out: IC50): 36 nM
